Patent US20070244080A1, “Method for Treatment of Inflammatory Disorders Using Triptolide Compounds” (priority 2004, published 2007)

Key:
[1] = Conversion of triptolide prodrug to triptolide in blood serum (TLC); assay type: in vitro ADME; conditions: 37° C.
Experimental: A solution of triptolide succinate in DMSO (25 mg/ml, 0.1 ml) was mixed with 0.5 ml of rat serum. The mixture was incubated at 37° C. Aliquots of the mixture were taken at 1, 3, 5, 15, 45 minutes and 18 hours and analyzed by thin layer chromatography (TLC). The TLC plates were developed in 1:5 CH2Cl2/Et2O. After development, the plates were treated with iodine vapor and examined under a UV lamp. Triptolide and triptolide succinate were used as reference compounds (Rf=0.60 and 0.45, respectively). […] After 15 minutes, the triptolide succinate spot had disappeared (Rf=0.45), and a new spot corresponding to triptolide had appeared (Rf=0.60).

[2] = tested on: IL-2 production in Jurkat cells; conditions: cited from earlier work
[3] = in vivo; cited from earlier work
[4] = tested on: human T cell lymphoma (Jurkat) cells; conditions: relative to native triptolide; cited from earlier work
[5] = Phase I clinical trial, tolerability; assay type: in vivo, human; conditions: 0.675 μg/m^2 by i.v. infusion, weekly intervals
Experimental: In accordance with the invention, administration of a triptolide compound is expected to inhibit cytokine production, particularly TGF-β production, in a patient suffering from obliterative airway disease, renal fibrosis, diabetic nephropathy, or liver fibrosis, thereby reducing the symptoms of the disease. A range of doses is practical for this treatment. […] This dose calculates to about 20 μg/kg. Treatment in this clinical study is administered at weekly intervals.

IL-2 [6] = assay: Suppression of cytokine production, PMA/ionomycin-induced Jurkat cells, ELISA; assay type: cell-based, human; conditions: 8 hr
Experimental: (§1) Triptolide suppresses in vitro production of proinflammatory cytokines such as IFN-γ, TNF-α, IL-1β and IL-6, as shown in Table 1. To obtain the data, Jurkat cells were stimulated for 8 hr by PMA and ionomycin. Human peripheral blood mononuclear cells (PBMC) from a single donor were incubated for 24 hr with PHA. At the end of the culture period, each supernatant was harvested, and the cytokine content was assayed by ELISA.

IFN-γ = assay: Suppression of cytokine production, PHA-induced PBMC, ELISA; assay type: cell-based, human; conditions: 24 hr, single donor
Experimental: as §1

IL-1β = assay: as above; assay type: cell-based, human; conditions: 24 hr, single donor
Experimental: as §1

IL-2 [7] = assay: as above; assay type: cell-based, human; conditions: 24 hr, single donor
Experimental: as §1

IL-6 = assay: as above; assay type: cell-based, human; conditions: 24 hr, single donor
Experimental: as §1

TNF-α = assay: as above; assay type: cell-based, human; conditions: 24 hr, single donor
Experimental: as §1

IL-8 = conditions: bronchial epithelial cells; cited from earlier work
[8] = tested on: cytokine genes in activated Jurkat cells; conditions: cited from earlier work

## triptolide 14-succinate [PG490-88]
[1]; after 3 minutes
  Species detected by TLC after incubation in rat serum: only triptolide succinate was detected
[1]; after 15 minutes
  Species detected by TLC after incubation in rat serum: disappeared
[2]; after incubation in plasma
  Suppression of IL-2 production: in vitro activity in suppression of IL-2 production
[3]
  Efficacy in animal models of immunosuppression: efficacy in several animal models of immunosuppression

## CC(C)[C@]12O[C@H]1[C@@H]1O[C@]13[C@]1(O[C@H]1C[C@H]1C4=C(CC[C@@]13C)C(=O)OC4)[C@H]2F [PG763, 14-deoxy-14α-fluoro triptolide]
[2]; relative to native triptolide
  IL-2 inhibition activity compared with native triptolide: nearly equivalent
[4]
  Cytotoxicity compared with native triptolide: nearly equivalent

## CC(C)[C@]12O[C@H]1[C@@H]1O[C@]13[C@]1(O[C@H]1C[C@H]1c4c(C(=O)c5ccccc5)oc(OC(=O)c5ccccc5)c4CC[C@@]13C)[C@@H]2O [PG796, 18-deoxo-19-dehydro-18-benzoyloxy-19-benzoyl triptolide]
[2]; relative to the prodrug triptolide 14-succinate
  IL-2 inhibition activity compared with triptolide 14-succinate: higher level of activity

## triptolide succinate sodium salt [PG490-88Na]
[5]
  Tolerability in phase I clinical trial: well tolerated with no drug-related toxicity

## triptolide
IL-2 [6]
  IC50, suppression of IL-2 production: 1.3 ng/mL
IFN-γ
  IC50, suppression of IFN-γ production: 0.52 ng/mL
IL-1β
  IC50, suppression of IL-1β production: 0.45 ng/mL
IL-2 [7]
  IC50, suppression of IL-2 production: 0.38 ng/mL
IL-6
  IC50, suppression of IL-6 production: 1.5 ng/mL
TNF-α
  IC50, suppression of TNF-α production: 0.35 ng/mL
IL-8
  IL-8 mRNA and protein expression: suppresses IL-8 expression
[8]
  Expression of cytokine genes (IL-2, IL-3, IL-6, IL-8, IL-13, TNF-α, TGF-β, MIP-1α, MIP-1β, GM-CSF, RANTES): inhibits the expression of several cytokine genes
